Measurements: article PMC6750895 (Journal of Medicinal Chemistry, 2019)
“Also recorded” adds a separate entry of the source.

Columns and labels:
[1] = set-up: method as in earlier work; conditions: urine; cited from earlier work
[2] = test system: IKZF3; assay: Compound-mediated IKZF3 degradation in OPM-2 cells (western blot); assay type: cell-based, human; conditions: 24 h
[3] = target: T1, MsCI4 (Magnetospirillum gryphiswaldense, UniProt A4TVL0); assay: FRET-based binding assay with WT MsCI4; conditions: for binding in the FRET assay (in words): WT MsCI4
T1 construct: made in house
T1 sequence (A4TVL0 1-124): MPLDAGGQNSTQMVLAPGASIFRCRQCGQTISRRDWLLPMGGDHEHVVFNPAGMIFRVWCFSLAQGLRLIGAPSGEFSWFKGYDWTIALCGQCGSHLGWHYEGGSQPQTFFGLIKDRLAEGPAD

[4] = Solubility in water or bicarbonate buffer; assay type: physicochemical
[5] = spontaneous hydrolysis, physiological pH of 7.4; cited from earlier work

SMILES	effect on IKZF3 levels / IKZF3 recruitment (in words) [2]	binding in the FRET assay (in words) [3]	also measured
NC(=O)CCC(C(=O)O)N1C(=O)c2ccccc2C1=O (stereo not shown) [2-phthalimidoglutaramic acid]			share among urinary metabolites of thalidomide [1]: ~50%
O=C1CC(N2C(=O)c3cccc([N+](=O)[O-])c3C2=O)C(=O)N1 (stereo not shown) [4a, 2-(2,5-Dioxopyrrolidin-3-yl)-4-nitroisoindoline-1,3-dione]	abolish IKZF3 recruitment	binding was observed but could not be quantified	
O=C1CC(N2C(=O)c3ccc([N+](=O)[O-])cc3C2=O)C(=O)N1 (stereo not shown) [4b, 2-(2,5-Dioxopyrrolidin-3-yl)-5-nitroisoindoline-1,3-dione]	abolish IKZF3 recruitment		
O=C1CCC(N2C(=O)c3cccc([N+](=O)[O-])c3C2=O)C(=O)N1 (stereo not shown) [4c, 2-(2,6-Dioxopiperidin-3-yl)-4-nitroisoindoline-1,3-dione]	abolish IKZF3 recruitment	binding was observed but could not be quantified	
O=C1CCC(N2C(=O)c3ccc([N+](=O)[O-])cc3C2=O)C(=O)N1 (stereo not shown) [4d, 2-(2,6-Dioxopiperidin-3-yl)-5-nitroisoindoline-1,3-dione]	abolish IKZF3 recruitment		
Nc1cccc2c1C(=O)N(C1CC(=O)NC1=O)C2=O (stereo not shown) [5a, 4-Amino-2-(2,5-dioxopyrrolidin-3-yl)isoindoline-1,3-dione]	significant effects	binding was observed but could not be quantified	
CC(C)=CC(=O)NC1CC(=O)NC1=O (stereo not shown) [7a, N-(2,5-Dioxopyrrolidin-3-yl)-3-methylbut-2-enamide]		binding was observed but could not be quantified	
O=C1CC(NC(=O)Cc2ccccc2)C(=O)N1 (stereo not shown) [7b, N-(2,5-Dioxopyrrolidin-3-yl)-2-phenylacetamide]	abolished IKZF3 recruitment	binding was observed but could not be quantified	
O=C1CC(NC(=O)OCc2ccccc2)C(=O)N1 (stereo not shown) [7d, Benzyl (2,5-Dioxopyrrolidin-3-yl)carbamate]	significant effects		reduction of IKZF3 levels ([2]; 100 μM): about 20%
O=C1CC(NC(=O)c2cc([N+](=O)[O-])cc([N+](=O)[O-])c2)C(=O)N1 (stereo not shown) [7e, N-(2,5-Dioxopyrrolidin-3-yl)-3,5-dinitrobenzamide]		binding was observed but could not be quantified; also recorded: affinity was decreased under the detectable levels of the FRET assay	
O=C(/C=C/c1ccccc1)NC1CC(=O)NC1=O (stereo not shown) [7f, N-(2,5-Dioxopyrrolidin-3-yl)cinnamamide]	significant effects		
O=C1CC(NC(=O)c2sc3ccccc3c2Cl)C(=O)N1 (stereo not shown) [7g, 3-Chloro-N-(2,5-dioxopyrrolidin-3-yl)benzo[b]thiophene-2-carboxamide]		binding was observed but could not be quantified	
NCc1ccc(COC(=O)NC2CC(=O)NC2=O)cc1.O=C(O)C(F)(F)F (stereo not shown) [11a, (4-((((2,5-Dioxopyrrolidin-3-yl)carbamoyl)oxy)methyl)phenyl)methanaminium 2,2,2-Trifluoroacetate]	abolished IKZF3 recruitment		solubility in water (in words) [4]: water-soluble
NCc1ccc(COC(=O)NC2CCC(=O)NC2=O)cc1.O=C(O)C(F)(F)F (stereo not shown) [11b, (4-((((2,6-Dioxopiperidin-3-yl)carbamoyl)oxy)methyl)phenyl)methanaminium 2,2,2-Trifluoroacetate]			solubility in water (in words) [4]: water-soluble; Ki [3]: 10 ± 0.8 µM
O=C(O)CCC(=O)NCc1ccc(COC(=O)NC2CC(=O)NC2=O)cc1 (stereo not shown) [12a, 4-((4-((((2,5-Dioxopyrrolidin-3-yl)carbamoyl)oxy)methyl)benzyl)amino)-4-oxobutanoic Acid]	abolished IKZF3 recruitment		
N[C@H]1CC[C@@H](COC(=O)NC2CC(=O)NC2=O)CC1 (stereo partly shown) [16a]			solubility in water (in words) [4]: water-soluble; Ki [3]: 20 ± 2 µM
N[C@H]1CC[C@@H](COC(=O)NC2CCC(=O)NC2=O)CC1 (stereo partly shown) [16b]			solubility in water (in words) [4]: water-soluble; Ki [3]: 5 ± 0.5 µM
O=C1CCC(NC(=O)c2ccccc2C(=O)O)C(=O)N1 (stereo not drawn) [CBG, α-(2-carboxybenzamido)glutarimide, reference compound]			share among urinary metabolites of thalidomide [1]: ~30%
O=C1CCC(N2C(=O)c3ccccc3C2=O)C(=O)N1 (stereo not shown) [thalidomide]			half-life [5]: 5.5 to 7.3 h
